In publication PMC10053857, “Analysis of NSAIDs in Rat Plasma Using 3D-Printed Sorbents by LC-MS/MS: An Approach to Pre-Clinical Pharmacokinetic Studies” (Pharmaceutics, 2023):

Columns and labels:
in vivo = experiment: in vivo; set-up: species or system male Sprague-Dawley rats; conditions: male, Sprague-Dawley, rat, po
Procedure: A 3D sorbent was used as the extraction device to evaluate the in vivo pharmacokinetics of acetaminophen and indomethacin. The Institutional Animal Ethics Committee of the National Institute of Pharmaceutical Education and Research, Guwahati (NIPER/CAF/IAEC/2022/60) approved all the animal experiments. For the pharmacokinetic study, the animal house was kept at a temperature of 25 ± 1 °C with a relative humidity of 50 ± 15%. The rats were maintained on a 12-h dark/light cycle and had free access to food and water. Prior to the study, the animals fasted for 12 h. To minimize variations in drug concentration in the plasma, 18 male Sprague-Dawley rats of similar weight and age were used. Rats were administered 50 mg/kg acetaminophen and 10 mg/kg indomethacin in saline through oral gavage to a different group. Blood samples were collected and thoroughly vortexed at 0.25, 0.50, 1, 2, 4, 6, and 8 h before being centrifuged at 5000 rpm for 20 min at 4 °C. The resulting plasma samples were separated and subjected to analysis using LC-MS/MS. The 3D extraction prototype was used to extract analytes from the plasma by introducing 90 µL of plasma spiked with 10 µL of an internal standard (I.S., 50 ng/mL), making up to 1 mL with deionized water, and adding the 3D extraction device for the adsorption process. After 15 min of adsorption in the vortexes, the remaining residue was collected for further analysis, the prototype was transferred into a fresh microcentrifuge tube, and desorption solvents (water and acetonitrile) were added in a 1:1 (v/v) ratio and vortexed for 15 min. Samples were collected after successful desorption and analyzed using LC-MS/MS.
Male Sprague-Dawley rats (n = 6) were used for pharmacokinetic studies, and oral doses of indomethacin and acetaminophen were separately administered to overnight-fasted rats. Blood was collected through retro-orbital puncture at different time points, and plasma was separated and stored for further analysis. Plasma containing indomethacin and acetaminophen was added to the microcentrifuge tube containing the activated extraction device for adsorption and vortexed for 15 min with 1 mL of water, after which the analytes present in the plasma were bound to the surface of the cartridge. After adsorption for 15 min, the remaining solvent was transferred into a fresh tube and centrifuged to precipitate the matrix. The resulting supernatant was collected and introduced into an LC-MS/MS system to quantify the unbound concentration. The sorbent was transferred into a fresh microcentrifuge tube for desorption using acetonitrile and water and vortexed for 15 min to complete the process. The solution was collected, followed by centrifugation, and the supernatant was filtered through a 0.2µm filter. The resulting filtrate was then subjected to LC-MS/MS analysis to measure the indomethacin and acetaminophen concentration in the plasma.
An investigation into the pharmacokinetics of indomethacin and acetaminophen in rats was conducted through oral administration, employing LC-ESI-MS/MS analysis. Figure 9 illustrates the resulting pharmacokinetic profile, while Table 4 presents the computed pharmacokinetic parameters of both substances, obtained via PK Analysis Add-ins in the Microsoft Excel Program. […] The mean area under the curve (AUC0–t) for indomethacin is 0.93 µg h/mL and for acetaminophen is 32.33 µg h/mL. […] Based on the obtained results, the developed 3D-printed sorbent efficiently extracted analytes from plasma, reduced sample preparation time, and minimized the use of organic solvents during sample preparation.

[1] = Stability of analytes in rat plasma (bench-top, autosampler/post-operative, freeze-thaw); assay type: in vitro ADME; conditions: for Mean Estimated Concentration ± SD, autosampler stability: 15 °C for 24 h; for Mean Estimated Concentration ± SD, bench-top stability: 8 h at ambient temperature; for Mean Estimated Concentration ± SD, three freeze-thaw cycles: each cycle at −20 °C; for mean percentage changes in plasma during bench-top stability, post-operative, and three freeze-thaw cycles: low and high QC
Procedure: To assess the specificity and selectivity of the validated LC-MS/MS method and to determine the exclusion of endogenous interferences at the retention time of the compound and I.S., a total of six plasma samples and two plasma samples containing 50 ng/mL I.S. solution were subjected to extraction using the 3D sorbent. A calibration curve for rat plasma was constructed for standards over a range of 1–800 ng/mL for acetaminophen and 1–500 ng/mL for indomethacin. The peak area ratio of the drug and I.S. was plotted with a weighing factor of 1/X to assess acetaminophen linearity and linear regression for indomethacin. The minimum detectable concentration of analytes, also known as the lower limit of quantification (LLOQ), was established as the concentration at which the coefficient of variation (CV) is less than 20%, and the accuracy is within the range of 80–120%. Four different concentrations of quality control samples were used for six replicates to determine the intra- and inter-day precision and accuracy. As per the FDA guidelines, CV was limited to <20% for the LLOQ and ≤15% for the LQC, MQC, and HQC. Accuracy was calculated as the percentage difference between the observed and nominal concentrations of the QC samples. A comparison of the peak area ratios of analytes to I.S. of extracted samples (n = 6) and drug solutions of the same concentration was performed to evaluate the extraction recovery of molecules from rat plasma. LQC, MQC, and HQC concentrations were investigated for extraction recovery. The matrix effect of the LQC, MQC, and HQC samples was determined by deproteinizing the blank plasma samples and adding analytes and I.S. to the deproteinized sample. Furthermore, the same analyte concentrations were analyzed in aqueous solutions. The matrix factor was calculated using the following equation: (peak area of post-extracted standard analytes/peak area of the analyte in aqueous solution) × 100. To test the dilution integrity, the range of the standard compound concentrations was increased beyond the calibration range. Plasma samples with 1200 ng/mL of acetaminophen and indomethacin were individually prepared and then diluted two-fold and four-fold using blank plasma. The dilution integrity of concentrations was evaluated with %CV <15%. A series of injections was performed to assess the carry-over effect of acetaminophen and indomethacin. The injections included a blank solvent sample, a higher concentration standard sample, a blank plasma sample extracted with the 3D sorbent, and a higher concentration sample extracted with 3D sorbent from plasma. The thresholds for carry-over effects were 20% of the mean extracted LLOQ signal and 5% of the I.S. response. The stability of acetaminophen and indomethacin in rat plasma was evaluated at six low- and high-quality control sample replicates. Benchtop and post-operative stability studies were conducted at 8 h at ambient temperature and 15 °C for 24 h, respectively. Quality control samples were stored at −20 °C and thawed at room temperature every 24 h for freeze-thaw stability, and after three freeze-thaw cycles, samples were analyzed.

[2] = acetaminophen, HQC, theoretical 600 ng/mL
[3] = acetaminophen, LQC, theoretical 3 ng/mL
[4] = indomethacin, HQC, theoretical 400 ng/mL
[5] = indomethacin, LQC, theoretical 3 ng/mL

## CC(=O)Nc1ccc(O)cc1 [Acetaminophen]
In vivo; 50 mg/kg
  AUC: 32400 ± 10800 ng·h/mL
  AUC(0-t): 32300 ± 10800 ng·h/mL
  Cmax: 27300 ± 9900 ng/mL
  Tmax: 30 to 60 min
  half-life: 48.6 ± 6 min
  k el: 0.000236 s⁻¹
[1]; [2]
  Mean Estimated Concentration ± SD, autosampler stability: 596.26 ± 8.41 ng/mL
  Mean Estimated Concentration ± SD, bench-top stability: 592.92 ± 10.80 ng/mL
  Mean Estimated Concentration ± SD, three freeze-thaw cycles: 591.92 ± 6.66 ng/mL
[1]; [3]
  Mean Estimated Concentration ± SD, autosampler stability: 2.92 ± 0.15 ng/mL
  Mean Estimated Concentration ± SD, bench-top stability: 2.91 ± 0.16 ng/mL
  Mean Estimated Concentration ± SD, three freeze-thaw cycles: 3.01 ± 0.09 ng/mL
[1]
  mean percentage changes in plasma during bench-top stability, post-operative, and three freeze-thaw cycles: within acceptable limits

## COc1ccc2c(c1)c(CC(=O)O)c(C)n2C(=O)c1ccc(Cl)cc1 [Indomethacin]
In vivo; 10 mg/kg
  AUC: 970 ± 200 ng·h/mL
  AUC(0-t): 930 ± 170 ng·h/mL
  Cmax: 330 ± 40 ng/mL
  Tmax: 30 to 60 min
  half-life: 107 ± 26.4 min
  k el: 0.000114 s⁻¹
[1]; [4]
  Mean Estimated Concentration ± SD, autosampler stability: 391.82 ± 6.72 ng/mL
  Mean Estimated Concentration ± SD, bench-top stability: 401.61 ± 7.80 ng/mL
  Mean Estimated Concentration ± SD, three freeze-thaw cycles: 395.72 ± 13.06 ng/mL
[1]; [5]
  Mean Estimated Concentration ± SD, autosampler stability: 2.99 ± 0.04 ng/mL
  Mean Estimated Concentration ± SD, bench-top stability: 2.98 ± 0.11 ng/mL
  Mean Estimated Concentration ± SD, three freeze-thaw cycles: 2.96 ± 0.12 ng/mL
[1]
  mean percentage changes in plasma during bench-top stability, post-operative, and three freeze-thaw cycles: within acceptable limits
